Data reported in ChEMBL document CHEMBL1641592, “Benzopyrazine derivatives: A novel class of growth factor receptor bound protein 7 antagonists” (Bioorg Med Chem, 2011).

Assays:
[1] = target: Growth factor receptor-bound protein 7 (Homo sapiens) (UniProt Q14451)
Description: Binding affinity to human GRB7 SH2-apo domain expressed in Escherichia coli BL21 (DE3) assessed as change in melting temperature at 100 uM by thermofluor based melting point shift assay

[2] = target: Growth factor receptor-bound protein 7 (Homo sapiens) (UniProt Q14451); remark: listed apart in the source
Description: Binding affinity to human GRB7 SH2-apo domain expressed in Escherichia coli BL21 (DE3) assessed as change in melting temperature at 200 uM by thermofluor based melting point shift assay

[3] = system: MDA-MB-468; assay: Cytotoxicity against human MDA-MB-468 cells after 4 days by SRB assay; details: MDA-MB-468, 96 h

Chain of Growth factor receptor-bound protein 7 (Homo sapiens) (Q14451 whole entry): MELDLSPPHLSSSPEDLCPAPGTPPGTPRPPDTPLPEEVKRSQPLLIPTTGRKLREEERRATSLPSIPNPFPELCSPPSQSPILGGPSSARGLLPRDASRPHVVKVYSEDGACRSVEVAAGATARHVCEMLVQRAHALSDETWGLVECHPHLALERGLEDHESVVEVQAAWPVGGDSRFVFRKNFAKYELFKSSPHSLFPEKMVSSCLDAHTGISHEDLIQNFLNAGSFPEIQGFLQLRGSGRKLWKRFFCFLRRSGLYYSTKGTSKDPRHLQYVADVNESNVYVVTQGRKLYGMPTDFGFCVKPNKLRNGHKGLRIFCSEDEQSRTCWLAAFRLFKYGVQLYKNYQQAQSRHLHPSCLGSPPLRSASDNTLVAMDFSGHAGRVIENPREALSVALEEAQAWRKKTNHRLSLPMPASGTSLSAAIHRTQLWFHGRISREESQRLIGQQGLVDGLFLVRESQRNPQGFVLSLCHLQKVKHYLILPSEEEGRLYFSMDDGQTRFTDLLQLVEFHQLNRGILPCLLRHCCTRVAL

Row | Compound | ΔTm [1] | ΔTm [2] | IC50 [3]
1 | COC(=O)C(=O)C(C(=O)C(=O)Nc1cc(C)ccc1C)c1nc2ccccc2nc1O (stereo not drawn) | 0.9 °C | 0.6 °C | –
2 | COC(=O)C(=O)C(C(=O)C(=O)Nc1ccc(C(N)=O)cc1)c1nc2ccc([N+](=O)[O-])cc2nc1O (stereo not drawn) | 0.45 °C | 0.85 °C | –
3 | COC(=O)C(=O)C(C(=O)C(=O)Nc1cc([N+](=O)[O-])ccc1C#N)c1nc2ccccc2nc1O (stereo not drawn) | 1.2 °C | 0.95 °C | –
4 | COC(=O)C(=O)C(C(=O)C(=O)Nc1ccccc1C(C)=O)c1nc2ccc(C(=O)c3ccccc3)cc2nc1O (stereo not drawn) | 0.05 °C | 0.55 °C | –
5 | COC(=O)C(=O)C(C(=O)C(=O)Nc1ccccc1C(N)=O)c1nc2ccc(C(=O)c3ccccc3)cc2nc1O (stereo not drawn) | – | – | 86 µM
6 | COC(=O)C(=O)C(C(=O)C(=O)Nc1cccc(C(C)=O)c1)c1nc2ccc([N+](=O)[O-])cc2nc1O (stereo not drawn) | 0.45 °C | 0.55 °C | –
7 | C[C@@H](O)[C@@H]1NC(=O)[C@H](CC(N)=O)NC(=O)[C@H](CC(=O)O)NC(=O)[C@H](Cc2ccc(O)cc2)NC(=O)CNC(=O)[C@@H](CCC(=O)O)NC(=O)[C@H](Cc2ccccc2)NC(=O)[C@H](Cc2c[nH]c3ccccc23)NC(=O)CSC[C@@H](C(=O)O)NC(=O)[C@@H]2CCCN2C(=O)[C@H](Cc2ccccc2)NC1=O | 1.35 °C | 1.85 °C | –
